In PubChem BioAssay AID1919001 (Molecular Pharmacology Branch, DTP, NCI, 2023):

Tested on: 699152-130-R-J1-PDC complex spheroid growth
Test: Anticancer human tumor 699152-130-R-J1-PDC patient-derived pancreatic carcinoma cell line growth inhibition [AhR]
Settings: for IC50: curve of first compound; for viability, T/C: stronger effect = lower value
In short: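 Complex tumor spheroids co-cultured with HUVEC and human MSC stroma; AhR antagonists tested in combination with standard-of-care and investigational agents. Top concentration at or near clinical Cmax (else 10 microM), half-log dilutions; growth expressed as percent test/control.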

[1] = second compound 0.1 µM, first compound 0.0316 µM
[2] = second compound 0.1 µM, first compound 0.1 µM
[3] = second compound 0.1 µM, first compound 0.316 µM
[4] = second compound 0.1 µM, first compound 1 µM
[5] = second compound 0.1 µM, first compound 3.16 µM
[6] = second compound 0.1 µM, first compound 10 µM
[7] = second compound 0.316 µM, first compound 0.0316 µM
[8] = second compound 0.316 µM, first compound 0.1 µM
[9] = second compound 0.316 µM, first compound 0.316 µM
[10] = second compound 0.316 µM, first compound 1 µM
[11] = second compound 0.316 µM, first compound 3.16 µM
[12] = second compound 0.316 µM, first compound 10 µM
[13] = second compound 1 µM, first compound 0.0316 µM
[14] = second compound 1 µM, first compound 0.1 µM
[15] = second compound 1 µM, first compound 0.316 µM
[16] = second compound 1 µM, first compound 1 µM
[17] = second compound 1 µM, first compound 3.16 µM
[18] = second compound 1 µM, first compound 10 µM
[19] = second compound 3.16 µM, first compound 0.0316 µM
[20] = second compound 3.16 µM, first compound 0.1 µM
[21] = second compound 3.16 µM, first compound 0.316 µM
[22] = second compound 3.16 µM, first compound 1 µM
[23] = second compound 3.16 µM, first compound 3.16 µM
[24] = second compound 3.16 µM, first compound 10 µM
[25] = second compound 10 µM, first compound 0.0316 µM
[26] = second compound 10 µM, first compound 0.1 µM
[27] = second compound 10 µM, first compound 0.316 µM
[28] = second compound 10 µM, first compound 1 µM
[29] = second compound 10 µM, first compound 3.16 µM
[30] = second compound 10 µM, first compound 10 µM
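Also: compound exposure lasted 7 days after spheroids had grown for 3 days.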

Compound `CC1(C)CCC(CN2CCN(c3ccc(C(=O)NS(=O)(=O)c4ccc(NCC5CCOCC5)c([N+](=O)[O-])c4)c(Oc4cnc5[nH]ccc5c4)c3)CC2)=C(c2ccc(Cl)cc2)C1` + Cc1cncc(-c2nc(NCCc3c[nH]c4ccccc34)c3ncn(C(C)C)c3n2)c1 has an IC50 (second compound 0.1 µM) greater than 10000 nM, an IC50 (second compound 0.316 µM) greater than 10000 nM and an IC50 (second compound 1 µM) greater than 10000 nM. For the same compound, the IC50 (second compound 3.16 µM) was greater than 10000 nM, the IC50 (second compound 10 µM) was less than 31.6 nM and the viability, T/C [1] was 101%. The viability, T/C [2] was 111%, the viability, T/C [3] was 124% and the viability, T/C [4] was 106%. The viability, T/C [5] was 109%, the viability, T/C [6] was 97.4% and the viability, T/C [7] was 114%. The viability, T/C [8] was 110%, the viability, T/C [9] was 105% and the viability, T/C [10] was 107%. The viability, T/C [11] was 114%, the viability, T/C [12] was 121% and the viability, T/C [13] was 127%. For the same compound, the viability, T/C [14] was 134%, the viability, T/C [15] was 127% and the viability, T/C [16] was 117%. The viability, T/C [17] was 120%, the viability, T/C [18] was 128% and the viability, T/C [19] was 121%. It also gave a viability, T/C [20] of 127%, a viability, T/C [21] of 130% and a viability, T/C [22] of 123%. The viability, T/C [23] was 125%, the viability, T/C [24] was 128% and the viability, T/C [25] was 19.8%. For the same compound, the viability, T/C [26] was 18.4%, the viability, T/C [27] was 23.2% and the viability, T/C [28] was 23.7%. For the same compound, the viability, T/C [29] was 27.9% and the viability, T/C [30] was 22.8%.

For `CCN(c1cc(-c2ccc(CN3CCOCC3)cc2)cc(C(=O)NCc2c(C)cc(C)[nH]c2=O)c1C)C1CCOCC1` + Cc1cncc(-c2nc(NCCc3c[nH]c4ccccc34)c3ncn(C(C)C)c3n2)c1, the IC50 (second compound 0.1 µM) was greater than 3000 nM, the IC50 (second compound 0.316 µM) was greater than 3000 nM and the IC50 (second compound 1 µM) was greater than 3000 nM. It also gave an IC50 (second compound 3.16 µM) greater than 3000 nM, an IC50 (second compound 10 µM) of less than 9.49 nM and a viability, T/C (second compound 0.1 µM, first compound 0.00949 µM) of 101%. It also gave a viability, T/C (second compound 0.1 µM, first compound 0.03 µM) of 110%, a viability, T/C (second compound 0.1 µM, first compound 0.0949 µM) of 113% and a viability, T/C (second compound 0.1 µM, first compound 0.3 µM) of 120%. It also gave a viability, T/C (second compound 0.1 µM, first compound 0.949 µM) of 98.2%, a viability, T/C (second compound 0.1 µM, first compound 3 µM) of 120% and a viability, T/C (second compound 0.316 µM, first compound 0.00949 µM) of 88.9%. The viability, T/C (second compound 0.316 µM, first compound 0.03 µM) was 94.4%, the viability, T/C (second compound 0.316 µM, first compound 0.0949 µM) was 112% and the viability, T/C (second compound 0.316 µM, first compound 0.3 µM) was 98.9%. The viability, T/C (second compound 0.316 µM, first compound 0.949 µM) was 103%, the viability, T/C (second compound 0.316 µM, first compound 3 µM) was 98.7% and the viability, T/C (second compound 1 µM, first compound 0.00949 µM) was 121%. For the same compound, the viability, T/C (second compound 1 µM, first compound 0.03 µM) was 116%, the viability, T/C (second compound 1 µM, first compound 0.0949 µM) was 116% and the viability, T/C (second compound 1 µM, first compound 0.3 µM) was 131%. The viability, T/C (second compound 1 µM, first compound 0.949 µM) was 119%, the viability, T/C (second compound 1 µM, first compound 3 µM) was 112% and the viability, T/C (second compound 3.16 µM, first compound 0.00949 µM) was 110%. The viability, T/C (second compound 3.16 µM, first compound 0.03 µM) was 106%, the viability, T/C (second compound 3.16 µM, first compound 0.0949 µM) was 114% and the viability, T/C (second compound 3.16 µM, first compound 0.3 µM) was 116%. It also gave a viability, T/C (second compound 3.16 µM, first compound 0.949 µM) of 114%, a viability, T/C (second compound 3.16 µM, first compound 3 µM) of 112% and a viability, T/C (second compound 10 µM, first compound 0.00949 µM) of 28.7%. The viability, T/C (second compound 10 µM, first compound 0.03 µM) was 30.9%, the viability, T/C (second compound 10 µM, first compound 0.0949 µM) was 28.9% and the viability, T/C (second compound 10 µM, first compound 0.3 µM) was 23.5%. For the same compound, the viability, T/C (second compound 10 µM, first compound 0.949 µM) was 22.4% and the viability, T/C (second compound 10 µM, first compound 3 µM) was 11.3%.

Work on `COc1cc(Nc2ncc3c(n2)-c2ccc(Cl)cc2C(c2c(F)cccc2OC)=NC3)ccc1C(=O)O` + Cc1cncc(-c2nc(NCCc3c[nH]c4ccccc34)c3ncn(C(C)C)c3n2)c1 yielded an IC50 (second compound 0.1 µM) greater than 10000 nM, an IC50 (second compound 0.316 µM) greater than 10000 nM and an IC50 (second compound 1 µM) greater than 10000 nM. For the same compound, the IC50 (second compound 3.16 µM) was greater than 10000 nM, the IC50 (second compound 10 µM) was less than 31.6 nM and the viability, T/C [1] was 80.3%. The viability, T/C [2] was 77.1%, the viability, T/C [3] was 73.4% and the viability, T/C [4] was 56.5%. The viability, T/C [5] was 56.1%, the viability, T/C [6] was 57.1% and the viability, T/C [7] was 76.2%. The viability, T/C [8] was 81%, the viability, T/C [9] was 72.4% and the viability, T/C [10] was 59.8%. The viability, T/C [11] was 55.9%, the viability, T/C [12] was 54.8% and the viability, T/C [13] was 95.5%. For the same compound, the viability, T/C [14] was 85.3%, the viability, T/C [15] was 79.5% and the viability, T/C [16] was 69%. It also gave a viability, T/C [17] of 59.7%, a viability, T/C [18] of 55.5% and a viability, T/C [19] of 92.5%. For the same compound, the viability, T/C [20] was 80.9%, the viability, T/C [21] was 84.8% and the viability, T/C [22] was 64.6%. For the same compound, the viability, T/C [23] was 64.2%, the viability, T/C [24] was 57.9% and the viability, T/C [25] was 23.8%. For the same compound, the viability, T/C [26] was 21.3%, the viability, T/C [27] was 21.3% and the viability, T/C [28] was 16.9%. The viability, T/C [29] was 16.3% and the viability, T/C [30] was 22.3%.

In the case of `Cn1ncnc1C1c2n[nH]c(=O)c3cc(F)cc(c23)NC1c1ccc(F)cc1` (stereo not given) + Cc1cncc(-c2nc(NCCc3c[nH]c4ccccc34)c3ncn(C(C)C)c3n2)c1, the IC50 (second compound 0.1 µM) is reported as greater than 100 nM, the IC50 (second compound 0.316 µM) is reported as greater than 100 nM and the IC50 (second compound 1 µM) is reported as greater than 100 nM. The IC50 (second compound 3.16 µM) was greater than 100 nM, the IC50 (second compound 10 µM) was less than 0.316 nM and the viability, T/C (second compound 0.1 µM, first compound 0.000316 µM) was 95.2%. It also gave a viability, T/C (second compound 0.1 µM, first compound 0.001 µM) of 117%, a viability, T/C (second compound 0.1 µM, first compound 0.00316 µM) of 109% and a viability, T/C (second compound 0.1 µM, first compound 0.01 µM) of 115%. It also gave a viability, T/C [1] of 105%, a viability, T/C [2] of 104% and a viability, T/C (second compound 0.316 µM, first compound 0.000316 µM) of 113%. It also gave a viability, T/C (second compound 0.316 µM, first compound 0.001 µM) of 115%, a viability, T/C (second compound 0.316 µM, first compound 0.00316 µM) of 125% and a viability, T/C (second compound 0.316 µM, first compound 0.01 µM) of 115%. For the same compound, the viability, T/C [7] was 102%, the viability, T/C [8] was 104% and the viability, T/C (second compound 1 µM, first compound 0.000316 µM) was 125%. The viability, T/C (second compound 1 µM, first compound 0.001 µM) was 117%, the viability, T/C (second compound 1 µM, first compound 0.00316 µM) was 119% and the viability, T/C (second compound 1 µM, first compound 0.01 µM) was 116%. It also gave a viability, T/C [13] of 111%, a viability, T/C [14] of 124% and a viability, T/C (second compound 3.16 µM, first compound 0.000316 µM) of 128%. The viability, T/C (second compound 3.16 µM, first compound 0.001 µM) was 114%, the viability, T/C (second compound 3.16 µM, first compound 0.00316 µM) was 118% and the viability, T/C (second compound 3.16 µM, first compound 0.01 µM) was 116%. For the same compound, the viability, T/C [19] was 114%, the viability, T/C [20] was 99.1% and the viability, T/C (second compound 10 µM, first compound 0.000316 µM) was 26.1%. The viability, T/C (second compound 10 µM, first compound 0.001 µM) was 28.6%, the viability, T/C (second compound 10 µM, first compound 0.00316 µM) was 34.2% and the viability, T/C (second compound 10 µM, first compound 0.01 µM) was 26.6%. For the same compound, the viability, T/C [25] was 28% and the viability, T/C [26] was 22.5%.

Compound `NS(=O)(=O)OCC1CC(n2ccc3c(NC4CCc5ccccc54)ncnc32)CC1O` (stereo not given) + Cc1cncc(-c2nc(NCCc3c[nH]c4ccccc34)c3ncn(C(C)C)c3n2)c1 has an IC50 (second compound 0.1 µM) of 898 nM, an IC50 (second compound 0.316 µM) of 837 nM and an IC50 (second compound 1 µM) of 889 nM. For the same compound, the IC50 (second compound 3.16 µM) was 512 nM, the IC50 (second compound 10 µM) was less than 31.6 nM and the viability, T/C [1] was 112%. It also gave a viability, T/C [2] of 128%, a viability, T/C [3] of 145% and a viability, T/C [4] of 41.8%. The viability, T/C [5] was 21.5%, the viability, T/C [6] was 20.9% and the viability, T/C [7] was 114%. The viability, T/C [8] was 132%, the viability, T/C [9] was 147% and the viability, T/C [10] was 35.2%. For the same compound, the viability, T/C [11] was 18.9%, the viability, T/C [12] was 21.4% and the viability, T/C [13] was 131%. It also gave a viability, T/C [14] of 156%, a viability, T/C [15] of 149% and a viability, T/C [16] of 39.1%. It also gave a viability, T/C [17] of 18.8%, a viability, T/C [18] of 18.3% and a viability, T/C [19] of 104%. The viability, T/C [20] was 103%, the viability, T/C [21] was 74.2% and the viability, T/C [22] was 16.5%. For the same compound, the viability, T/C [23] was 8.14%, the viability, T/C [24] was 9.66% and the viability, T/C [25] was 23.7%. The viability, T/C [26] was 17.8%, the viability, T/C [27] was 10.1% and the viability, T/C [28] was 5.16%. The viability, T/C [29] was 4.2% and the viability, T/C [30] was 3.67%.
